Measurements as given in US7186714B2, “Imidazo[1,2-α]pyridine derivatives for the prophylaxis and treatment of herpes viral infections” (SmithKline Beecham Corporation, priority 2001, dated 2007).

Tested on: HSV-1
Assay: HSV infection of Vero 76 cells, viral DNA detected by hybridization capture with chemiluminescence
Type: cell-based
Details: Human alphaherpesvirus 1; HSV-1 in Vero 76 cells, MOI=0.001, incubated 40–48 hours with test compound
Description: Vero 76 cells were maintained in MEM with Earle's salts, L-glutamine, 8% FBS (Hyclone, A-1111-L) and 100 units/mL Penicillin-100 μg/mL Streptomycin. For assay conditions, FBS was reduced to 2%. Cells are seeded into 96-well tissue culture plates at a density of 5×10^4 cells/well after being incubated for 45 min at 37° C. in the presence of HSV-1 or HSV-2 (MOI=0.001). Test compounds are added to the wells and the plates are incubated at 37° C. for 40–48 hours. Cell lysates are prepared as follows: media was removed and replaced with 150 μL/well 0.2 N NaOH with 1% Igepal CA 630 or NP-40. Plates were incubated up to 14 days at room temperature in a humidified chamber to prevent evaporation.
For the detection probe, a gel-purified, digoxigenin-labeled, 710-bp PCR fragment of the HSV UL-15 sequence was utilized. PCR conditions included 0.5 μM primers, 180 μM dTTP, 20 μM dUTP-digoxigenin (Boehringer Mannheim 1558706), 200 μM each of dATP, dCTP, and dGTP, 1×PCR Buffer II (Perkin Elmer), 2.5 mM MgCl2, 0.025 units/μL of AmpliTaq Gold polymerase (Perkin Elmer), and 5 ng of gel-purified HSV DNA per 100 μL Extension conditions were 10 min at 95° C., followed by 30 cycles of 95° C. for 1 min, 55° C. for 30 sec, and 72° C. for 2 min. The amplification was completed with a 10-min incubation at 72° C. Primers were selected to amplify a 728 bp probe spanning a section of the HSV1 UL15 open reading frame (nucleotides 249–977). Single-stranded transcripts were purified with Promega M13 Wizard kits. The final product was mixed 1:1 with a mixture of 6 M GuSCN, 100 mM EDTA and 200 μg/mL herring sperm DNA and stored at 4° C.
The capture DNA plasmid (HSV UL13 region in pUC) was linearized by cutting with XbaI, denatured for 15 min at 95° C. and diluted immediately into Reacti-Bind DNA Coating Solution (Pierce, 17250, diluted 1:1 with TE buffer, pH 8) at 1 ng/μL 75 μL/well were added to Corning (#3922 or 9690) white 96-well plates and incubated at room temperature for at least 4 hrs before washing twice with 300 μL/well 0.2×SSC/0.05% Tween-20 (SSC/T buffer). The plates were then incubated overnight at room temperature with 150 μL/well 0.2 N NaOH, 1% IGEPAL and 10 μg/mL herring sperm DNA.
Twenty-seven (27) μL of cell lysate was combined with 45 μL of hybridization solution (final concentration: 3M GuSCN, 50 mM EDTA, 100 μg/ml salmon sperm DNA, 5×Denhardt's solution, 0.25×APE, and 5 ng of the digoxigenin-labeled detection probe). APE is 1.5 M NH4-acetate, 0.15 M ammonium phosphate monobasic, and 5 mM EDTA adjusted to pH 6.0. Mineral oil (50 μL) was added to prevent evaporation. The hybridization plates were incubated at 95° C. for 10 minutes to denature the DNA, then incubated at 42° C. overnight. The wells were washed 6× with 300 μL/well SSC/T buffer then incubated with 75 μL/well anti-digoxigenin-HRP-conjugated antibody (Boehringer Mannheim 1207733, 1:5000 in TE) for 30 min at room temperature. The wells were washed 6× with 300 μL/well with PBS/0.05% Tween-20 before 75 μL/well SuperSignal LBA substrate (Pierce) was added. The plates were incubated at room temperature for 30 minutes and chemiluminescence was measured in a Wallac Victor reader.

Row | IC50 [nM] | Structure (SMILES)
1 | 600 | Nc1cccn2c(-c3ccnc(NC4CCCC4)n3)c(-c3ccc(F)cc3)nc12 [Example 1, 3-[2-(Cyclopentylamino)-4-pyrimidinyl]-2-(4-fluorophenyl)imidazo[1,2-α]pyridin-8-amine]
2 | 3900 | Fc1ccc(-c2nc3c(Cl)cccn3c2-c2ccnc(NC3CCCC3)n2)cc1 [Example 2, 4-[8-Chloro-2-(4-fluorophenyl)imidazo[1,2-α]pyridin-3-yl]-N-cyclopentyl-2-pyrimidinamine]
3 | 400 | Fc1ccc(-c2nc3c(NC4CCCC4)cccn3c2-c2ccnc(NC3CCCC3)n2)cc1 [Example 3, N-Cyclopentyl-3-[2-(cyclopentylamino)-4-pyrimidinyl]-2-(4-fluorophenyl)imidazo[1,2-α]pyridin-8-amine]
4 | 1400 | Fc1ccc(-c2nc3c(N4CCCC4)cccn3c2-c2ccnc(NC3CCCC3)n2)cc1 [Example 4, N-Cyclopentyl-4-[2-(4-fluorophenyl)-8-(1-pyrrolidinyl)imidazo[1,2-α]pyridin-3-yl]-2-pyrimidinamine]
5 | 650 | CCCCNc1cccn2c(-c3ccnc(NC4CCCC4)n3)c(-c3ccc(F)cc3)nc12 [Example 5, N-Butyl-3-[2-(cyclopentylamino)-4-pyrimidinyl]-2-(4-fluorophenyl)imidazo[1,2-α]pyridin-8-amine]
6 | 340 | COCCNc1cccn2c(-c3ccnc(NC4CCCC4)n3)c(-c3ccc(F)cc3)nc12 [Example 6, 3-[2-(Cyclopentylamino)-4-pyrimidinyl]-2-(4-fluorophenyl)-N-(2-methoxyethyl)imidazo[1,2-α]pyridin-8-amine]
7 | 2400 | CNc1nccc(-c2c(-c3ccc(F)cc3)nc3c(Cl)cccn23)n1 [Example 7, 4-[8-Chloro-2-(4-fluorophenyl)imidazo[1,2-α]pyridin-3-yl]-N-methyl-2-pyrimidinamine]
8 | > 5000 | CNc1nccc(-c2c(-c3ccc(F)cc3)nc3c(NC4CCCC4)cccn23)n1 [Example 8, N-Cyclopentyl-2-(4-fluorophenyl)-3-[2-(methylamino)-4-pyrimidinyl]imidazo[1,2-α]pyridin-8-amine]
9 | 1200 | COc1ccc(-c2nc3c(Cl)cccn3c2-c2ccnc(NC3CCCC3)n2)cc1 [Example 9, 4-[8-Chloro-2-(4-methoxyphenyl)imidazo[1,2-α]pyridin-3-yl]-N-cyclopentyl-2-pyrimidinamine]
10 | 1750 | COc1ccc(-c2nc3c(NC4CCCC4)cccn3c2-c2ccnc(NC3CCCC3)n2)cc1 [Example 10, N-Cyclopentyl-3-[2-(cyclopentylamino)-4-pyrimidinyl]-2-(4-methoxyphenyl)imidazo[1,2-α]pyridin-8-amine]
11 | 3300 | Oc1ccc(-c2nc3c(NC4CCCC4)cccn3c2-c2ccnc(NC3CCCC3)n2)cc1 [Example 11, 4-{8-(Cyclopentylamino)-3-[2-(cyclopentylamino)-4-pyrimidinyl]imidazo[1,2-α]pyridin-2-yl}phenol]
12 | 2300 | COc1cccc(-c2nc3c(Cl)cccn3c2-c2ccnc(NC3CCCC3)n2)c1 [Example 15, 4-[8-Chloro-2-(3-methoxyphenyl)imidazo[1,2-α]pyridin-3-yl]-N-cyclopentyl-2-pyrimidinamine]
13 | 370 | COc1cccc(-c2nc3c(NC4CCCC4)cccn3c2-c2ccnc(NC3CCCC3)n2)c1 [Example 16, N-Cyclopentyl-3-[2-(cyclopentylamino)-4-pyrimidinyl]-2-(3-methoxyphenyl)imidazo[1,2-α]pyridin-8-amine]
14 | 3100 | Oc1cccc(-c2nc3c(NC4CCCC4)cccn3c2-c2ccnc(NC3CCCC3)n2)c1 [Example 17, 3-{8-(Cyclopentylamino)-3-[2-(cyclopentylamino)-4-pyrimidinyl]imidazo[1,2-α]pyridin-2-yl}phenol]
15 | 340 | C=CCOc1cccc(-c2nc3c(NC4CCCC4)cccn3c2-c2ccnc(NC3CCCC3)n2)c1 [Example 18, 2-[3-(Allyloxy)phenyl]-N-cyclopentyl-3-[2-(cyclopentylamino)-4-pyrimidinyl]imidazo[1,2-α]pyridin-8-amine]
16 | 3740 | Cc1ccc(-c2nc3c(Cl)cccn3c2-c2ccnc(NC3CCCC3)n2)cc1 [Example 19, 4-[8-Chloro-2-(4-methylphenyl)imidazo[1,2-α]pyridin-3-yl]-N-cyclopentyl-2-pyrimidinamine]
17 | 710 | Cc1ccc(-c2nc3c(NC4CCCC4)cccn3c2-c2ccnc(NC3CCCC3)n2)cc1 [Example 20, N-Cyclopentyl-3-[2-(cyclopentylamino)-4-pyrimidinyl]-2-(4-methylphenyl)imidazo[1,2-α]pyridin-8-amine]
18 | 640 | COCCNc1cccn2c(-c3ccnc(NC4CCCC4)n3)c(-c3ccc(C)cc3)nc12 [Example 21, 3-[2-(Cyclopentylamino)-4-pyrimidinyl]-N-(2-methoxyethyl)-2-(4-methylphenyl)imidazo[1,2-α]pyridin-8-amine]
19 | 840 | Cc1ccc(-c2nc3c(N4CCOCC4)cccn3c2-c2ccnc(NC3CCCC3)n2)cc1 [Example 22, N-Cyclopentyl-4-[2-(4-methylphenyl)-8-(4-morpholinyl)imidazo[1,2-α]pyridin-3-yl]-2-pyrimidinamine]
20 | 210 | Clc1cccn2c(-c3ccnc(NC4CC4)n3)c(-c3ccc4ccccc4c3)nc12 [Example 23, 4-[8-Chloro-2-(2-naphthyl)imidazo[1,2-α]pyridin-3-yl]-N-cyclopropyl-2-pyrimidinamine]
21 | 560 | c1ccc2cc(-c3nc4c(NC5CC5)cccn4c3-c3ccnc(NC4CC4)n3)ccc2c1 [Example 24, N-Cyclopropyl-3-[2-(cyclopropylamino)-4-pyrimidinyl]-2-(2-naphthyl)imidazo[1,2-α]pyridin-8-amine]
22 | 300 | N#Cc1ccc(-c2nc3c(Cl)cccn3c2-c2ccnc(NC3CCCC3)n2)cc1 [Example 25, 4-{8-Chloro-3-[2-(cyclopentylamino)-4-pyrimidinyl]imidazo[1,2-α]pyridin-2-yl}benzonitrile]
23 | 310 | N#Cc1ccc(-c2nc3c(NC4CCCC4)cccn3c2-c2ccnc(NC3CCCC3)n2)cc1 [Example 26, 4-{8-(Cyclopentylamino)-3-[2-(cyclopentylamino)-4-pyrimidinyl]imidazo[1,2-α]pyridin-2-yl}benzonitrile]
24 | 200 | N#Cc1ccc(-c2nc3c(N4CCOCC4)cccn3c2-c2ccnc(NC3CCCC3)n2)cc1 [Example 27, 4-[3-[2-(Cyclopentylamino)-4-pyrimidinyl]-8-(4-morpholinyl)-imidazo[1,2-α]pyridin-2-yl]benzonitrile]
25 | 6300 | NC(=O)c1ccc(-c2nc3c(N4CCOCC4)cccn3c2-c2ccnc(NC3CCCC3)n2)cc1 [Example 28, 4-[3-[2-(Cyclopentylamino)-4-pyrimidinyl]-8-(4-morpholinyl)imidazo[1,2-α]pyridin-2-yl]benzamide]
26 | > 5000 | NC(=O)c1ccc(-c2nc3c(NC4CCCC4)cccn3c2-c2ccnc(NC3CCCC3)n2)cc1 [Example 29, 4-{8-(Cyclopentylamino)-3-[2-(cyclopentylamino)-4-pyrimidinyl]imidazo[1,2-α]pyridin-2-yl}benzamide]
27 | 1600 | O=[N+]([O-])c1cccc(-c2nc3c(Cl)cccn3c2-c2ccnc(NC3CCCC3)n2)c1 [Example 30, N-{4-[8-Chloro-2-(3-nitrophenyl)imidazo[1,2-α]pyridin-3-yl]-2-pyrimidinyl}-N-cyclopentylamine]
28 | 1200 | O=[N+]([O-])c1cccc(-c2nc3c(N4CCOCC4)cccn3c2-c2ccnc(NC3CCCC3)n2)c1 [Example 31, N-Cyclopentyl-4-[8-(4-morpholinyl)-2-(3-nitrophenyl)imidazo[1,2-α]pyridin-3-yl]-2-pyrimidinamine]
29 | 3300 | Nc1cccc(-c2nc3c(Cl)cccn3c2-c2ccnc(NC3CCCC3)n2)c1 [Example 32, 4-[2-(3-Aminophenyl)-8-chloroimidazo[1,2-α]pyridin-3-yl]-N-cyclopentyl-2-pyrimidinamine]
